# Laboratory results reported in patent publication US20080293081A1, “Fluorescence Polarization Assays for Acetyltransferase/Deacetylase Activity” (Sirtris Pharmaceuticals, Inc., priority 2005, published 2008).
# pEC50, pIC50: −log10 of the molar value. Read-outs that look alike come from different tables or passages of the source. No end group written: not given here.
# Assays:
# [1] = target: T1, SIRT1 (Homo sapiens, UniProt Q96EB6); test: Fluorescence polarization assay, SIRT1 deacetylation of p53-based peptide substrate; format: biochemical; conditions: for pEC50: activation of SIRT1, compounds 1-18 with peptide 1 (MR121), compounds 19-56 with peptide 2 (5TMR), read-out: ED50 (the source's name); for pIC50: inhibition of SIRT1
# T1 sequence (Q96EB6 1-747): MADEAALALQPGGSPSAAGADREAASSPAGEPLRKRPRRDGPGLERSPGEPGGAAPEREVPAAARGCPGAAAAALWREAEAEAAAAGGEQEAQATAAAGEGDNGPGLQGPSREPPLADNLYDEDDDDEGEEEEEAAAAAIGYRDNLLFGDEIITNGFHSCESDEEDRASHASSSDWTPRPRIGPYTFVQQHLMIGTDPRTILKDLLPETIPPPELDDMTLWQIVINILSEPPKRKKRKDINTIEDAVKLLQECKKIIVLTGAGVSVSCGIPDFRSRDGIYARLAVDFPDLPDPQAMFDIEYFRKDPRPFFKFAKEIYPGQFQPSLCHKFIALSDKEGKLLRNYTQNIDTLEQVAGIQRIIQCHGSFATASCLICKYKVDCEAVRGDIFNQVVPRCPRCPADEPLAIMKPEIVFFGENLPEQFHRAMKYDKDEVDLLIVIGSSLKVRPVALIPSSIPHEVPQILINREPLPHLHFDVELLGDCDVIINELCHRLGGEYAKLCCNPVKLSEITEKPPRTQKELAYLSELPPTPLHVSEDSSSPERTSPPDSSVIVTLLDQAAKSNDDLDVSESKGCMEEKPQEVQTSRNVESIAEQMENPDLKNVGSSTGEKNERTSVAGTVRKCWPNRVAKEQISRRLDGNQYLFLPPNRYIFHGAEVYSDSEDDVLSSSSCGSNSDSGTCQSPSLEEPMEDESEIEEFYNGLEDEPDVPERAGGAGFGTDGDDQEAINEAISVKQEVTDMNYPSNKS
# [2] = target: T2, SIRT3 (Homo sapiens, UniProt Q9NTG7); test: Fluorescence polarization assay, SIRT3 deacetylation of Histone H4-based peptide substrate; format: biochemical
# T2 construct: amino acid residues 102-399 of human SIRT3 with an N-terminal His-tag; His-tag (N); made in house; host or cells: E. coli
# T2 sequence (Q9NTG7 102-399): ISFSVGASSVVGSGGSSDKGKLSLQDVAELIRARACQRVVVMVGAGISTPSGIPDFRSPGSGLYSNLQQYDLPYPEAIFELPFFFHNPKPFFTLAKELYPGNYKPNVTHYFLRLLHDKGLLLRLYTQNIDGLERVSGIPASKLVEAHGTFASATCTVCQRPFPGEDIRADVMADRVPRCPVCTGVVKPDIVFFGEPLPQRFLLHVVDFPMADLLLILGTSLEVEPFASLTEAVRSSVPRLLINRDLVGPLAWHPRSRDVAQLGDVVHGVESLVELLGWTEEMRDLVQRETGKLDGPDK
# Text: A fluorescence polarization assay was used to identify modulators of SIRT3 activity. The same assay may be used to identify modulators of any sirtuin protein. The assay utilizes a peptide substrate based on a fragment of Histone H4, a known sirtuin deacetylation target. […] The peptide is labeled with the fluorophore MR121 (excitation 635 nm/emission 680 nm) at the C-terminus and biotin at the N-terminus.
# The peptide substrate is exposed to a sirtuin protein in the presence of NAD^+ to allow deacetylation of the substrate and render it sensitive to cleavage by trypsin. Trypsin is then added and the reaction is carried to completion (i.e., the deacetylated substrate is cleaved) releasing the MR121 fragment. Streptavidin is then added to the reaction where it can bind both the uncleaved substrate (i.e., any remaining acetylated substrate) and the non-fluorescent portion of the cleaved peptide substrate (i.e., the biotin containing fragment). The fluorescence polarization signal observed for the full length peptide substrate bound to streptavidin is higher than the fluorescence polarization signal observed for the released MR121 C-terminal fragment. Therefore, the fluorescence polarization obtained is inversely proportional to the level of deacetylation (e.g., the signal is inversely proportional to the activity of the sirtuin protein). Results are read on a microplate fluorescence polarization reader (Molecular Devices Spectramax MD) with appropriate excitation and emission filters.
# The fluorescence polarization assays may be conducted as follows: 0.5 μM peptide substrate and 50 μM βNAD^+ is incubated with 2 nM of SIRT3 for 60 minutes at 37° C. in a reaction buffer (25 mM Tris-acetate pH8, 137 mM Na—Ac, 2.7 mM K—Ac, 1 mM Mg—Ac, 0.1% Pluronic F127, 10 mM CaCl2, 1 mM TCEP, 0.025% BSA). Test compounds are solubilized in DMSO and are added to the reaction at 11 concentrations ranging from 0.7 μM to 100 μM. The SIRT3 protein used in the assays corresponded to amino acid residues 102-399 of human SIRT3 with an N-terminal His-tag. The protein was overexpressed in E. coli and purified on a nickel chelate column using standard techniques. After the 60 minute incubation with SIRT3, nicotinamide is added to the reaction to a final concentration of 3 mM to stop the deacetylation reaction and 0.5 μg/mL of trypsin is added to cleave the deacetylated substrate. The reaction is incubated for 30 minutes at 37° C. in the presence of 1 mM streptavidin. Fluorescent polarization is determined at excitation (650 nm) and emissions (680 nm) wavelengths. The level of activity of the sirtuin protein in the presence of the various concentrations of test compound are then determined and may be compared to the level of activity of the sirtuin protein in the absence of the test compound, and/or the level of activity of the sirtuin proteins in the negative control (e.g., level of inhibition) and positive control (e.g., level of activation) described below.
# A control for activation of sirtuin activity is conducted using 0.5 μg/mL of sirtuin protein to reach baseline deacetylation of the substrate (e.g., to determine normalized sirtuin activity).
# [3] = target: T1, SIRT1; conditions: Sirt1, nicotinamide release, cited from earlier work
# [4] = target: T1, SIRT1; conditions: Sirt1, Biomol Fluor de Lys product literature, cited from earlier work
# [5] = target: T3, Sirt2 (Homo sapiens, UniProt Q8IXJ6); conditions: Sirt2, Biomol Fluor de Lys product literature, cited from earlier work
# T3 sequence (Q8IXJ6 1-389): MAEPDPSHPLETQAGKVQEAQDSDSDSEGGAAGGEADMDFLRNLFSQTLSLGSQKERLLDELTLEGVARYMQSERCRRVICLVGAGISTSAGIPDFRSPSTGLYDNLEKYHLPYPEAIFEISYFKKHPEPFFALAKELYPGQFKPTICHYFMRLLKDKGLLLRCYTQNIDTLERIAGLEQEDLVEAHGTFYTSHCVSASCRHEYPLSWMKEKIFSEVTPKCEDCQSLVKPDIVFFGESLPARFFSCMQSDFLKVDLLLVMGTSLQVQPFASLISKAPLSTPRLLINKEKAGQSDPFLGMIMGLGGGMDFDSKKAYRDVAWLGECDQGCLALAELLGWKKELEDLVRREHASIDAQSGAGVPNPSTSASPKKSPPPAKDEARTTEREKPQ
# [6] = target: T4, Sirt3 (Homo sapiens, UniProt Q9NTG7); conditions: Sirt3, Biomol Fluor de Lys product literature, cited from earlier work
# T4 sequence (Q9NTG7 1-399): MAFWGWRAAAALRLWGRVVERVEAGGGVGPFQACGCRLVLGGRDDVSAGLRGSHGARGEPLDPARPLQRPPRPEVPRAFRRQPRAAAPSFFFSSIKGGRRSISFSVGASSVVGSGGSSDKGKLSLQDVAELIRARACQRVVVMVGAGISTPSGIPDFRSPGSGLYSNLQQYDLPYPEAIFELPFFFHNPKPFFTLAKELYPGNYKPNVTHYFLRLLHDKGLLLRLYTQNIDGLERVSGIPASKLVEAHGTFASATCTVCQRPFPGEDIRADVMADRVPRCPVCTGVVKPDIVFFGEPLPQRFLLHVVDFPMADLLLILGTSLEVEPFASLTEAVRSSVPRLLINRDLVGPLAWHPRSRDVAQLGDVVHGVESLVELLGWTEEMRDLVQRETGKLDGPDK
# [7] = read-out: ED50 (the source's name)
# [8] = Km of NAD with the named peptide substrate, Kaeberlein et al., read-out: NAD Km
# [9] = Kaeberlein et al., read-out: Peptide Km
# [10] = Km of NAD with the named peptide substrate, read-out: NAD Km
molecule,measurement,setting,value
O=C(NCCN1CCOCC1)c1cc(-c2cccs2)nc2ccccc12 [Compound 5],pEC50,[1],3.82 to 4.00
Cc1nc(-c2cccc(NC(=O)c3c4ccccc4nc4ccccc34)c2)cs1 [Compound 76],pIC50,[1],< 3.82
Cc1ccc2nc(-c3ccccc3)cc(C(=O)NCCN3CCOCC3)c2c1 [Compound 12],pEC50,[1],4.00 to 4.29
O=C(NNc1c2c(nc3ccccc13)CCCC2)c1ccccn1 [Compound 73],pIC50,[1],> 4.30
O=C(O)c1c(O)c(-c2ccccc2)nc2ccccc12 [Compound 80],pEC50,[2]; [7],4.00 to 4.29
CC(=O)Nc1ccc(Nc2cc(C)nc3c(C)cccc23)cc1 [Compound 81],pIC50,[2],3.82 to 4.00
"Oc1ccc(C=Cc2cc(O)cc(O)c2)cc1 [resveratrol, reference compound]",pEC50,"[2]; activation of SIRT3, read-out: ED50 for activation of SIRT3",< 3.52
"p53 (aa 368-386) *FL: p53 (aa 368-386) peptide substrate with fluorescent label, Kaeberlein et al. (HLKSKKGQSTSRHKKLMFK; also: fluorescent label; UniProt P04637 368-386, looked up, fragment)",Km,[3]; [8],192 µM
same,Km,[3]; [9],87.6 µM
O=C(NCCN1CCOCC1)c1cc(-c2cccs2)nc2ccc(F)cc12 [Compound 7],pEC50,[1],3.82 to 4.00
FC(F)(F)c1ccnc(NNc2c3ccccc3nc3ccccc23)n1 [Compound 33],pEC50,[1],3.82 to 4.00
Cc1ccc2nc(-c3ccco3)cc(C(=O)NCCCCN3CCOCC3)c2c1 [Compound 72],pIC50,[1],< 3.82
O=C(NCc1ccncc1)c1cc(-c2ccsc2)nc2ccccc12 [Compound 1],pEC50,[2]; [7],4.00 to 4.29
Cc1cc(C)nc(Nc2c3ccccc3nc3ccccc23)c1 [Compound 74],pIC50,[1],< 3.82
"p53 (aa 379-382) *FL: p53 (aa 379-382) peptide substrate with fluorescent label, Biomol Fluor de Lys SIRT1 kit (RHKK; also: fluorescent label; UniProt P04637 379-382, looked up, fragment)",Km,[4]; [10],558 µM
same,Km,[4]; read-out: Peptide Km,64 µM
"p53 19 mer (aa 368-386) no FL: p53 19 mer (aa 368-386) peptide substrate without fluorescent label, McDonagh et al. (HLKSKKGQSTSRHKKLMFK; UniProt P04637 368-386, looked up, fragment)",Km,"[3]; Km of NAD with the named peptide substrate, McDonagh et al., read-out: NAD Km",133 µM
same,Km,"[3]; McDonagh et al., read-out: Peptide Km",10.3 µM
O=C(Nc1ccccc1)c1c2c(nc3ccccc13)-c1ccccc1CC2 [Compound 79],pIC50,[1],< 3.82
O=C(NNc1c2ccccc2nc2ccccc12)c1ccccn1 [Compound 2],pEC50,[1],4.00 to 4.29
O=C(NNc1c2ccccc2nc2ccccc12)c1cccnc1 [Compound 11],pEC50,[2]; [7],4.00 to 4.29
COc1cc(C(=O)NNC(=O)c2c3ccccc3nc3ccccc23)cc(OC)c1OC [Compound 75],pIC50,[1],> 4.30
COc1ccccc1NC(=O)Nc1c2c(nc3ccccc13)CCCC2 [Compound 77],pIC50,[1],< 3.82
"p53 (aa 317-320) *FL: p53 (aa 317-320) peptide substrate with fluorescent label, Biomol Fluor de Lys SIRT2 and SIRT3 kits (QPKK; also: fluorescent label; UniProt P04637 317-320, looked up, fragment)",Km,[5]; [10],547 µM
same,Km,[5]; read-out: Peptide Km,186 µM
same,Km,[6]; [10],2030 µM
same,Km,[6]; read-out: Peptide Km,32 µM
COc1cc(NC(=O)Nc2c3c(nc4ccccc24)CCCC3)cc(OC)c1OC [Compound 78],pIC50,[1],3.82 to 4.00
"p53 (aa 368-386) no FL: p53 (aa 368-386) peptide substrate without fluorescent label, Kaeberlein et al. (HLKSKKGQSTSRHKKLMFK; UniProt P04637 368-386, looked up, fragment)",Km,[3]; [8],132 µM
same,Km,[3]; [9],10.3 µM
